In patent US20250195530A1, “POLQ INHIBITORS” (ASTRAZENECA AB, priority 2022, published 2025):
Like-named read-outs stand apart in the source and are kept apart here. Each block holds one compound with its values, some of them ahead of it.

How the values were obtained:
DLD-1 BRCA2−/− cells = experiment: Homologous recombination synthetic lethal inhibition of proliferation, DLD-1 BRCA2-/- (Cell Titre Glo 3D); format: cell-based; conditions: Homo sapiens
In short: (§1)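 Cells are seeded in RPMI 1640 (phenol red free, 10% FBS, GlutaMAX) onto pre-dosed compound (10 μM to 0.51 nM, three-fold). Plates are incubated at 37 °C, and medium plus compound are refreshed on day 6. Viability is read by CellTiter-Glo 3D at day 7 (DLD-1) or day 12 (DLD-1 BRCA2−/−), and the IC50 is fitted.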

DLD-1 cells = experiment: Inhibition of proliferation, DLD-1 BRCA2 wt control (Cell Titre Glo 3D); format: cell-based; conditions: Homo sapiens
In short: as §1

[1] = DLD-1, 288 h, DLD-1 BRCA2−/− cells, 12 days, read-out: POLQ PD Prolif Lumin BRCA2 −/− mean pIC50 (converted)
[2] = DLD-1, 168 h, DLD-1 BRCA2 wt cells, 7 days, read-out: POLQ PD Prolif Lumin DLD1 mean pIC50 (converted)
[3] = DLD-1, proliferation, luminescence, taken as DLD-1 BRCA2-/-, read-out: POLQ PD Prolif Lumin (converted)
[4] = DLD-1, proliferation, luminescence, second Prolif column (c6), taken as DLD-1 BRCA2 wt control, read-out: POLQ PD Prolif Lumin (converted)
[5] = DLD-1, first proliferation column (c5), taken as DLD-1 BRCA2-/-, read-out: POLQ PD Prolif Lumin (converted)
[6] = DLD-1, second proliferation column (c6), taken as DLD-1 BRCA2 wt, read-out: POLQ PD Prolif Lumin (converted)
[7] = DLD-1, first proliferation column (c5), DLD-1 BRCA2-/-, read-out: POLQ PD Prolif Lumin (converted)
[8] = DLD-1, second proliferation column (c6), DLD-1 BRCA2 wt control, read-out: POLQ PD Prolif Lumin (converted)
[9] = DLD-1, first proliferation column, DLD-1 BRCA2-/-, read-out: POLQ PD Prolif Lumin (converted)
[10] = DLD-1, second proliferation column, DLD-1 BRCA2 wt control, read-out: POLQ PD Prolif Lumin (converted)

SMILES: CC1(Oc2ncnc3c2nc(-c2ccc(OCCN4CCNCC4)cc2Cl)n3Cc2ccccc2)CCC1 [Example 12, 9-Benzyl-8-(2-chloro-4-(2-(piperazin-1-yl)ethoxy)phenyl)-6-(1-methylcyclobutoxy)-9H-purine]
- IC50 (DLD-1 BRCA2−/− cells; [1]): 126 nM
- IC50 (DLD-1 cells; [2]): 2000 nM

SMILES: COc1cc(OCCN2CCN(C)CC2)ccc1-c1nc2c(OC3(C)CC3)ncnc2n1Cc1ccccc1 [Example H3, 9-benzyl-8-(2-methoxy-4-(2-(4-methylpiperazin-1-yl)ethoxy)phenyl)-6-(1-methylcyclopropoxy)-9H-purine]
- IC50 (DLD-1 BRCA2−/− cells; [1]): 631 nM
- IC50 (DLD-1 cells; [2]): 7940 nM

SMILES: CC1(Oc2ncnc3c2nc(-c2ccc(OCCN4C[C@H]5C[C@@H]4CN5)cc2Cl)n3Cc2ccccc2)CC1 [Example R20, 8-(4-(2-((1R,4R)-2,5-diazabicyclo[2.2.1]heptan-2-yl)ethoxy)-2-chlorophenyl)-9-benzyl-6-(1-methylcyclopropoxy)-9H-purine]
- IC50 (DLD-1 BRCA2−/− cells; [1]): 200 nM
- IC50 (DLD-1 cells; [2]): 2510 nM

SMILES: CC1(Oc2ccnc3c2nc(-c2ccc(OCCN4CCNCC4)cc2Cl)n3Cc2ccccn2)CCC1 [Example P3, 2-(2-chloro-4-(2-(piperazin-1-yl)ethoxy)phenyl)-7-(1-methylcyclobutoxy)-3-(pyridin-2-ylmethyl)-3H-imidazo[4,5-b]pyridine]
- IC50 (DLD-1 BRCA2−/− cells; [1]): 2000 nM
- IC50 (DLD-1 cells; [2]): > 10000 nM

SMILES: Cc1cc(OCCCN2CCCC2)ncc1-c1nc2c(OC3(C)CC3)ncnc2n1Cc1ccccc1 [Example G5, 9-benzyl-8-(4-methyl-6-(3-(pyrrolidin-1-yl)propoxy)pyridin-3-yl)-6-(1-methylcyclopropoxy)-9H-purine]
- IC50 (DLD-1 BRCA2−/− cells; [1]): 398 nM
- IC50 (DLD-1 cells; [2]): 7940 nM

SMILES: CC1(Oc2ncnc3c2nc(-c2ccc(OCCN4CC[C@@H](O)C4)cc2Cl)n3Cc2cc(Cl)ccn2)CC1 [Example R2, (R)-1-(2-(3-chloro-4-(9-((4-chloropyridin-2-yl)methyl)-6-(1-methylcyclopropoxy)-9H-purin-8-yl)phenoxy)ethyl)pyrrolidin-3-ol]
- IC50 (DLD-1 BRCA2−/− cells; [1]): 126 nM
- IC50 (DLD-1 cells; [2]): > 10000 nM

SMILES: CC(C)(C)Oc1cccc2c1nc(-c1ccc(OCCC(=O)O)cc1Cl)n2Cc1cccc(Cl)c1 [Example T288, 3-(4-(4-(tert-butoxy)-1-(3-chlorobenzyl)-1H-benzo[d]imidazol-2-yl)-3-chlorophenoxy)propanoic acid]
- IC50 (DLD-1 BRCA2−/− cells; DLD-1, DLD-1 BRCA2-/- proliferation, column head only partly shown, read-out: POLQ PD Prolif Lumin (converted)): 2000 nM
- IC50 (DLD-1 cells; DLD-1, DLD-1 BRCA2 wt control proliferation, column head only partly shown, read-out: POLQ PD Prolif Lumin (converted)): > 10000 nM

SMILES: CC1(Oc2ncnc3c2nc(-c2ccc(OCCN4C[C@@H]5CC[C@H]4CN5)cc2Cl)n3Cc2ccccc2)CC1 [Example R21, (1S,4S)-2-(2-(4-(9-benzyl-6-(1-methylcyclopropoxy)-9H-purin-8-yl)-3-chlorophenoxy)ethyl)-2,5-diazabicyclo[2.2.2]octane]
- IC50 (DLD-1 BRCA2−/− cells; [1]): 316 nM
- IC50 (DLD-1 cells; [2]): 1580 nM

SMILES: CC1(Oc2ncnc3c2nc(-c2ccc(OC4CNC4)cc2Cl)n3Cc2ccccc2)CC1 [Example D35, 8-(4-(azetidin-3-yloxy)-2-chlorophenyl)-9-benzyl-6-(1-methylcyclopropoxy)-9H-purine]
- IC50 (DLD-1 BRCA2−/− cells; [1]): 501 nM
- IC50 (DLD-1 cells; [2]): 3980 nM

SMILES: CC1(Oc2ncnc3c2nc(-c2ccc(OCCN4CCNCC4)cc2Cl)n3Cc2cccc(Cl)c2)CC1 [Example J13, 8-(2-chloro-4-(2-(piperazin-1-yl)ethoxy)phenyl)-9-(3-chlorobenzyl)-6-(1-methylcyclopropoxy)-9H-purine]
- IC50 (DLD-1 BRCA2−/− cells; [1]): 50.1 nM
- IC50 (DLD-1 cells; [2]): 3160 nM

SMILES: CC1(Oc2ncnc3c2nc(-c2ccc(OCCN4CCNC5(CC5)C4)cc2Cl)n3Cc2ccccc2)CC1 [Example R17, 8-(4-(2-(4,7-diazaspiro[2.5]octan-7-yl)ethoxy)-2-chlorophenyl)-9-benzyl-6-(1-methylcyclopropoxy)-9H-purine]
- IC50 (DLD-1 BRCA2−/− cells; [1]): 100 nM
- IC50 (DLD-1 cells; [2]): 1000 nM

SMILES: Cc1ccnc(Cn2c(-c3ccc(OCCN4CCNCC4)cc3Cl)nc3c(OC(C)(C)C)cccc32)c1 [Example T609, 4-(tert-butoxy)-2-(2-chloro-4-(2-(piperazin-1-yl)ethoxy)phenyl)-1-((4-methylpyridin-2-yl)methyl)-1H-benzo[d]imidazole]
- IC50 (DLD-1 BRCA2−/− cells; [9]): 1580 nM
- IC50 (DLD-1 cells; [10]): > 10000 nM

Now from value to compound, other results behind:

- IC50 (DLD-1 cells; [4]): > 10000 nM
SMILES: Cc1cnc(Cn2c(-c3ccc(OCCCN4CC[C@@H](O)C4)cc3Cl)nc3c(OC4(C)CC4)ncnc32)s1 [Example T391, (R)-1-(3-(3-chloro-4-(6-(1-methylcyclopropoxy)-9-((5-methylthiazol-2-yl)methyl)-9H-purin-8-yl)phenoxy)propyl)pyrrolidin-3-ol]
- IC50 (DLD-1 BRCA2−/− cells; [3]): 501 nM

- IC50 (DLD-1 cells; [6]): > 10000 nM
SMILES: Cc1ccnc(Cn2c(-c3ccc(C(=O)N4CCNCC4)cc3Cl)nc3c(OC4(C)CC4)ncnc32)c1 [Example T337, (3-chloro-4-(6-(1-methylcyclopropoxy)-9-((4-methylpyridin-2-yl)methyl)-9H-purin-8-yl)phenyl)(piperazin-1-yl)methanone]
- IC50 (DLD-1 BRCA2−/− cells; [5]): 5010 nM

- IC50 (DLD-1 cells; [4]): 794 nM
SMILES: Cc1cnc(Cn2c(-c3cccc(OCCCN4CC[C@@H](O)C4)c3Cl)nc3c(OC4(C)CC4)ncnc32)s1 [Example T392, (R)-1-(3-(2-chloro-3-(6-(1-methylcyclopropoxy)-9-((5-methylthiazol-2-yl)methyl)-9H-purin-8-yl)phenoxy)propyl)pyrrolidin-3-ol]
- IC50 (DLD-1 BRCA2−/− cells; [3]): 794 nM

- IC50 (DLD-1 cells; [6]): > 10000 nM
SMILES: CC1(Oc2ncnc3c2nc(-c2ccc(OCCN4CCNCC4)cc2F)n3Cc2cc(Cl)ccn2)CC1 [Example T349, 9-((4-chloropyridin-2-yl)methyl)-8-(2-fluoro-4-(2-(piperazin-1-yl)ethoxy)phenyl)-6-(1-methylcyclopropoxy)-9H-purine]
- IC50 (DLD-1 BRCA2−/− cells; [5]): 631 nM

- IC50 (DLD-1 cells; [8]): > 10000 nM
SMILES: Cc1ccnc(Cn2c(-c3cccc(OCCCN4CC(O)C4)c3Cl)nc3c(OC4(C)CC4)ncnc32)c1 [Example T514, 1-(3-(2-chloro-3-(6-(1-methylcyclopropoxy)-9-((4-methylpyridin-2-yl)methyl)-9H-purin-8-yl)phenoxy)propyl)azetidin-3-ol]
- IC50 (DLD-1 BRCA2−/− cells; [7]): 398 nM

- IC50 (DLD-1 cells; [8]): > 10000 nM
SMILES: Cc1cnc(Cn2c(-c3ccc(OC4CCNCC4)cc3Cl)nc3c(OC4(C)CC4)ncnc32)s1 [Example T138, 2-((8-(2-chloro-4-(piperidin-4-yloxy)phenyl)-6-(1-methylcyclopropoxy)-9H-purin-9-yl)methyl)-5-methylthiazole]
- IC50 (DLD-1 BRCA2−/− cells; [7]): 501 nM

- IC50 (DLD-1 cells; DLD-1, DLD1 BRCA2 wt cells, mean, read-out: POLQ PD Prolif Lumin DLD1 mean PIC50 (converted)): > 10000 nM
SMILES: Cc1ccnc(Cn2c(-c3ccc(NS(C)(=O)=O)cc3Cl)nc3c(OC4(C)CC4)ncnc32)c1 [Example T29, N-(3-chloro-4-(6-(1-methylcyclopropoxy)-9-((4-methylpyridin-2-yl)methyl)-9H-purin-8-yl)phenyl)methanesulfonamide]
- IC50 (DLD-1 BRCA2−/− cells; DLD-1, DLD-1 BRCA2 −/− cells, mean, read-out: POLQ PD Prolif Lumin BRCA2 −/− mean pIC50 (converted)): 1260 nM

- IC50 (DLD-1 cells; [4]): > 10000 nM
SMILES: CC1(Oc2ncnc3c2nc(-c2ccc(OCCOC(C)(C)C(=O)O)cc2Cl)n3Cc2cccc(Cl)c2)CC1 [Example T450, 2-(2-(3-chloro-4-(9-(3-chlorobenzyl)-6-(1-methylcyclopropoxy)-9H-purin-8-yl)phenoxy)ethoxy)-2-methylpropanoic acid]
- IC50 (DLD-1 BRCA2−/− cells; [3]): 200 nM

- IC50 (DLD-1 cells; [6]): > 10000 nM
SMILES: Cc1ccnc(Cn2c(-c3ccc(CC(=O)N4CCC4)cc3Cl)nc3c(OC4(C)CC4)ncnc32)c1 [Example T308, 1-(azetidin-1-yl)-2-(3-chloro-4-(6-(1-methylcyclopropoxy)-9-((4-methylpyridin-2-yl)methyl)-9H-purin-8-yl)phenyl)ethan-1-one]
- IC50 (DLD-1 BRCA2−/− cells; [5]): 316 nM

- IC50 (DLD-1 cells; [6]): > 10000 nM
SMILES: Cc1ccnc(Cn2c(-c3cccc(OCCCN(C)C)c3Cl)nc3c(OC4(C)CC4)ncnc32)c1 [Example T386, 3-(2-chloro-3-(6-(1-methylcyclopropoxy)-9-((4-methylpyridin-2-yl)methyl)-9H-purin-8-yl)phenoxy)-N,N-dimethylpropan-1-amine]
- IC50 (DLD-1 BRCA2−/− cells; [5]): 100 nM

- IC50 (DLD-1 cells; [10]): 2510 nM
SMILES: Cc1ccnc(Cn2c(-c3ccc(OCCN4CCNC[C@@H]4C)cc3Cl)nc3c(OC4(C)CC4)ncnc32)c1 [Example T594, (S)-8-(2-chloro-4-(2-(2-methylpiperazin-1-yl)ethoxy)phenyl)-6-(1-methylcyclopropoxy)-9-((4-methylpyridin-2-yl)methyl)-9H-purine]
- IC50 (DLD-1 BRCA2−/− cells; [9]): 501 nM

- IC50 (DLD-1 cells; DLD-1, DLD1 BRCA2 wt, mean, read-out: POLQ PD Prolif Lumin DLD1 mean pIC50 (converted)): > 10000 nM
SMILES: C[C@@H](CCOc1ccc(-c2nc3c(OC4(C)CC4)ncnc3n2Cc2cccc(Cl)c2)c(Cl)c1)C(=O)NCC(=O)O [Example U86, (S)-(4-(3-chloro-4-(9-(3-chlorobenzyl)-6-(1-methylcyclopropoxy)-9H-purin-8-yl)phenoxy)-2-methylbutanoyl)glycine]
- IC50 (DLD-1 BRCA2−/− cells; DLD-1, DLD-1 BRCA2 −/−, mean, read-out: POLQ PD Prolif Lumin BRCA2 −/− mean pIC50 (converted)): 2510 nM
